We go through one compound from patent US8541167B2 (priority 2004, dated 2013).

One assay concerns ectromelia virus. More on the design: species or system Mice. The following applies: mouse, in vivo, ip, 12.5 mg/kg/day.
Assay [1] relates to vaccinia, ectromelia or cowpox. The following applies: mouse, in vivo; cited from earlier work.
Another assay deals with ECTV. The arrangement: species or system A/NCr mice. As to conditions: mouse, in vivo.

Regarding `Nc1ccn(C[C@@H](CO)OCP(=O)(O)O)c(=O)n1` [Cidofovir], the “effect of cidofovir during vaccination on level of protection from lethal disease” value with ectromelia virus is recorded as “did not affect the level of protection”. For the same compound, the “efficacy in protecting mice from a lethal dose” value in assay [1] is on record as “high efficacy”. The “protection from death afforded by vaccination in presence vs absence of CDV” value with ECTV is recorded as “no difference observed”.
